These results are taken from PubChem BioAssay AID192 (DTP/NCI, 2004).

Several values for one entry are separate records, joined by “and”; a condition that tells them apart may be missing. Equal entries are not always repeated. Toxic doses and inconclusive results are not listed.

The test system of this experiment is BDF1 mice, B16 melanoma ip, median survival T/C. Put plainly: NCI In Vivo Anticancer Drug Screen. Data for tumor model B16 Melanoma (intraperitoneal) in B6D2F1 (BDF1) mice. To be noted: endpoint: median survival time, higher = longer survival. Put shortly: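 Vehicle-treated animals serve as the reference (C); treated animals (T) are scored for survival or tumor size after tumor transplantation.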

Where [1] appears, read: dose: 6.25 mg/kg/injection, schedule: Q01DX009 (ip), vehicle: saline with Tween-80.
The mark [2] stands for this setting: dose: 12.5 mg/kg/injection, schedule: Q01DX009 (ip), vehicle: saline with Tween-80.
Setting [3] is: dose: 25.0 mg/kg/injection, schedule: Q01DX009 (ip), vehicle: saline with Tween-80.
Setting [4] is: dose: 6.25 mg/kg/injection, schedule: Q01DX009 (ip), vehicle: saline.
The mark [5] stands for this setting: dose: 12.5 mg/kg/injection, schedule: Q01DX009 (ip), vehicle: saline.
[6] abbreviates: dose: 25.0 mg/kg/injection, schedule: Q01DX009 (ip), vehicle: saline.
Where [7] appears, read: dose: 50.0 mg/kg/injection, schedule: Q01DX009 (ip), vehicle: saline.
Setting [8] is: dose: 100.0 mg/kg/injection, schedule: Q01DX009 (ip), vehicle: saline.
[9] abbreviates: dose: 100.0 mg/kg/injection, schedule: Q04DX003 (ip), vehicle: saline with Tween-80.
Setting [10] is: dose: 200.0 mg/kg/injection, schedule: Q01DX009 (ip), vehicle: saline.
The mark [11] stands for this setting: dose: 200.0 mg/kg/injection, schedule: Q04DX003 (ip), vehicle: saline with Tween-80.
[12] abbreviates: dose: 200.0 mg/kg/injection, schedule: Q01DX009 (ip), vehicle: saline with Tween-80.
Setting [13] is: dose: 25.0 mg/kg/injection, schedule: Q01DX009 (ip), vehicle: Klucel (hydroxypropylcellulose) (HPC).
Where [14] appears, read: dose: 50.0 mg/kg/injection, schedule: Q01DX009 (ip), vehicle: Klucel (hydroxypropylcellulose) (HPC).
Setting [15] is: dose: 100.0 mg/kg/injection, schedule: Q01DX009 (ip), vehicle: Klucel (hydroxypropylcellulose) (HPC).
The mark [16] stands for this setting: dose: 12.5 mg/kg/injection, schedule: Q01DX009 (ip), vehicle: Klucel (hydroxypropylcellulose) (HPC).
The mark [17] stands for this setting: dose: 1.5 mg/kg/injection, schedule: Q01DX009 (ip), vehicle: saline with Tween-80.
[18] abbreviates: dose: 3.0 mg/kg/injection, schedule: Q01DX009 (ip), vehicle: saline with Tween-80.
The mark [19] stands for this setting: dose: 6.0 mg/kg/injection, schedule: Q01DX009 (ip), vehicle: saline with Tween-80.

Turning to `COc1cc2cc(c1Cl)N(C)C(=O)CC(OC(=O)CC(C)C)C1(C)OC1C(C)C1CC(O)(NC(=O)O1)C(OC)/C=C/C=C(C)C2` (stereo not given), the T/C (dose: 3.1 micrograms/kg/injection, schedule: Q01DX009 (ip), vehicle: saline + alcohol) was 122 % of control; the T/C (dose: 6.25 micrograms/kg/injection, schedule: Q01DX009 (ip), vehicle: saline + alcohol) is 150 % of control and 160 % of control; the T/C (dose: 12.5 micrograms/kg/injection, schedule: Q01DX009 (ip), vehicle: saline + alcohol) is 157 % of control and 169 % of control and 173 % of control; the T/C (dose: 15.0 micrograms/kg/injection, schedule: Q01DX009 (ip), vehicle: saline + alcohol) is 170 % of control; the T/C (dose: 25.0 micrograms/kg/injection, schedule: Q01DX009 (ip), vehicle: saline + alcohol) is 164 % of control and 168 % of control and 183 % of control; the T/C (dose: 30.0 micrograms/kg/injection, schedule: Q01DX009 (ip), vehicle: saline + alcohol) was 179 % of control. For the same compound, the T/C is, setting by setting: (dose: 50.0 micrograms/kg/injection, schedule: Q01DX009 (ip), vehicle: saline + alcohol) 163 % of control; (dose: 60.0 micrograms/kg/injection, schedule: Q01DX009 (ip), vehicle: saline + alcohol) 191 % of control.
Take `O=C(Nc1ccc(C2=NCCN2)cc1)c1ccc(C(=O)Nc2ccc(C3=NCCN3)cc2)c(Cl)c1`: the T/C (dose: 3.12 mg/kg/injection, schedule: Q01DX009 (ip), vehicle: saline with Tween-80) is 93 % of control; the T/C under setting [1] was 104 % of control; the T/C (dose: 8.0 mg/kg/injection, schedule: Q01DX009 (ip), vehicle: saline with Tween-80) was 104 % of control; the T/C under setting [2] is 108 % of control; the T/C (dose: 16.0 mg/kg/injection, schedule: Q01DX009 (ip), vehicle: saline with Tween-80) was 102 % of control; the T/C under setting [3] was 105 % of control.
With `CCNC(Cc1ccccc1)C1CCCO1` (stereo not given), the T/C by setting is: under setting [4], 122 % of control; under setting [5], 120 % of control; under setting [6], 115 % of control; under setting [7], 115 % of control; under setting [8], 100 % of control.
With `O=C(NO)c1ccccc1`, the T/C is 94 % of control (dose: 12.5 mg/kg/injection, schedule: Q01DX009 (ip), vehicle: suspension in saline); 95 % of control (dose: 25.0 mg/kg/injection, schedule: Q01DX009 (ip), vehicle: suspension in saline); 97 % of control under setting [7]; 92 % of control (dose: 50.0 mg/kg/injection, schedule: Q01DX009 (ip), vehicle: suspension in saline); 107 % of control (dose: 50.0 mg/kg/injection, schedule: Q04DX003 (ip), vehicle: saline with Tween-80); 97 % of control under setting [8]. Moreover, the T/C reads like this: (dose: 100.0 mg/kg/injection, schedule: Q01DX009 (ip), vehicle: suspension in saline) 92 % of control; under setting [9], 111 % of control; (dose: 178.0 mg/kg/injection, schedule: Q04DX003 (ip), vehicle: saline with Tween-80) 102 % of control; under setting [10], 107 % of control; under setting [11], 108 % of control; (dose: 400.0 mg/kg/injection, schedule: Q04DX003 (ip), vehicle: saline with Tween-80) 100 % of control. In addition, the T/C (dose: 600.0 mg/kg/injection, schedule: Q04DX003 (ip), vehicle: saline with Tween-80) was 100 % of control.
`COc1ccc(C(=S)N2CCN(c3ccccc3)CC2)cc1`: the T/C under setting [2] was 87 % of control; the T/C (dose: 50.0 mg/kg/injection, schedule: Q01DX009 (ip), vehicle: saline with Tween-80) was 99 % of control; the T/C under setting [12] was 87 % of control.
Consider `CCCCCCCCCC(O)CCC` (stereo not given), for which the T/C is 103 % of control under setting [13], 99 % of control under setting [14] and 92 % of control under setting [15].
As to `CCCC1(CCC)CN(C)C1=O`, the T/C was 91 % of control under setting [5]; 89 % of control under setting [6]; 100 % of control under setting [7]; 106 % of control under setting [8]; 93 % of control under setting [10].
Consider `O=C(O)c1ccc(OC(F)(F)C(F)Cl)cc1` (stereo not given), for which the T/C is, setting by setting: under setting [13], 106 % of control; under setting [14], 100 % of control; under setting [15], 106 % of control.
Regarding `CC(=O)Nc1ccc(S(=O)(=O)N/N=C\c2ccc(Cl)c(Cl)c2)cc1`, the T/C was 111 % of control under setting [1], 105 % of control under setting [2] and 117 % of control under setting [3].
As for `CCCN(CCC)C(=O)c1cccnc1`, the T/C was 102 % of control under setting [8]; 106 % of control under setting [10]; 113 % of control (dose: 400.0 mg/kg/injection, schedule: Q01DX009 (ip), vehicle: saline).
With `c1ccc(COCCNCCOCc2ccccc2)cc1`, the T/C is 100 % of control under setting [16], 90 % of control under setting [13] and 103 % of control under setting [14].
As to `Cc1ccccc1OS(=O)(=O)c1cccc([N+](=O)[O-])c1`, the T/C runs as follows: (dose: 100.0 mg/kg/injection, schedule: Q01DX009 (ip), vehicle: saline with Tween-80) 113 % of control; under setting [12], 113 % of control; (dose: 400.0 mg/kg/injection, schedule: Q01DX009 (ip), vehicle: saline with Tween-80) 107 % of control.
With `CCn1c(=O)c2[nH]c(Cl)nc2n(CC)c1=O`, the T/C is, setting by setting: (dose: 1.25 mg/kg/injection, schedule: Q## X032 (ip), vehicle: water) 103 % of control; (dose: 2.5 mg/kg/injection, schedule: Q## X032 (ip), vehicle: water) 101 % of control; (dose: 5.0 mg/kg/injection, schedule: Q## X032 (ip), vehicle: water) 103 % of control; (dose: 10.0 mg/kg/injection, schedule: Q## X032 (ip), vehicle: water) 97 % of control.
As for `C=CC12COC(=O)C(=C)C1C1OC(=O)C(=C)C1C(O)C2` (stereo not given), the T/C is, setting by setting: (dose: 0.93 mg/kg/injection, schedule: Q01DX009 (ip), vehicle: Klucel (hydroxypropylcellulose) (HPC)) 95 % of control; (dose: 1.87 mg/kg/injection, schedule: Q01DX009 (ip), vehicle: Klucel (hydroxypropylcellulose) (HPC)) 104 % of control; (dose: 3.75 mg/kg/injection, schedule: Q01DX009 (ip), vehicle: Klucel (hydroxypropylcellulose) (HPC)) 101 % of control; (dose: 7.5 mg/kg/injection, schedule: Q01DX009 (ip), vehicle: Klucel (hydroxypropylcellulose) (HPC)) 98 % of control.
In the case of `CCOc1cc(N2CCOCC2)c(OCC)cc1N`, the T/C by setting is: under setting [4], 95 % of control; under setting [5], 102 % of control; under setting [6], 100 % of control.
In the case of `O=C(CCl)c1ccc(O)c(O)c1`, the T/C by setting is: under setting [16], 94 % of control; under setting [13], 87 % of control.
`COc1cccnc1/C=N/NC(N)=S`: the T/C was 98 % of control under setting [17]; 93 % of control under setting [18]; 95 % of control under setting [19]; 98 % of control (dose: 12.0 mg/kg/injection, schedule: Q01DX009 (ip), vehicle: saline with Tween-80).
Turning to `CC(=O)C1CCC2C3CCC4=CC(=O)CC4(C)C3CCC12C` (stereo not given), the T/C by setting is: under setting [9], 94 % of control; under setting [11], 105 % of control.
For `Cc1c2cc[n+](C)c(C)c2cc2c1[nH]c1ccc(O)cc12`, the T/C is 117 % of control and 120 % of control (dose: 2.5 mg/kg/injection, schedule: Q04DX003 (ip), vehicle: water); 150 % of control (dose: 10.0 mg/kg/injection, schedule: Q04DX003 (ip), vehicle: water).
In the case of `CN(CCO)/N=N/c1nc[nH]c1C(N)=O`, where the note is “dose: 50.0 mg/kg/injection, schedule: Q01DX009 (ip), vehicle: carboxymethylcellulose (CMC)”, the T/C is 105 % of control.
For the compound `Cc1nc2ccccc2nc1CI`, the T/C reads like this: (dose: 0.75 mg/kg/injection, schedule: Q01DX009 (ip), vehicle: saline with Tween-80) 106 % of control; under setting [17], 93 % of control; under setting [18], 106 % of control; under setting [19], 93 % of control; under setting [1], 91 % of control.
